Consider eleven compounds from US8431365B2, “β1,3-N-acetyl-D-galactosamine transferase protein, nucleic acid encoding the same and method of examining canceration using the same” (National Institute of Advanced Industrial Science and …, priority 2003, dated 2013).

Assay type in all cases: biochemical
For assay [1], the target named is T1, human G34 protein (Homo sapiens, UniProt Q8NCR0).
T1 construct: made in house; host or cells: Sf21 insect cells (baculovirus, pFBIF-G34A)
T1 sequence (Q8NCR0 36-500): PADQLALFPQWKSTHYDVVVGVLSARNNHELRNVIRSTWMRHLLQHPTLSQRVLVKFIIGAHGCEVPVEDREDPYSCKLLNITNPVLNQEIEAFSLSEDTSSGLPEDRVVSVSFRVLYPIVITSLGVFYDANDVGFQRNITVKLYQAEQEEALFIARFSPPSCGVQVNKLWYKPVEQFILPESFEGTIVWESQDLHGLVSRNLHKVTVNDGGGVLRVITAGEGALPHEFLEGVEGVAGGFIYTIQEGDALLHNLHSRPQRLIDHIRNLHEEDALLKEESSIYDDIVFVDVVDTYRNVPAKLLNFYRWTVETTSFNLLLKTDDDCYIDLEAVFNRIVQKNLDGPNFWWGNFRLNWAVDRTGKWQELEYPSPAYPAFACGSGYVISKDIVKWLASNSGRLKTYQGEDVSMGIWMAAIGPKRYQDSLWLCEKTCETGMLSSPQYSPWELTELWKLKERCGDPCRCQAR
Description: Acceptor substrate specificity to oligosaccharides. To be noted: for % (radioactivity relative to Bz-β-GlcNAc set to 100%): 50 nmol substrate, HEPES pH 7.4, MnCl2 10 mM, 37° C. 2 hours. From the text: The following reaction system was used for examining the acceptor substrate specificity to oligosaccharides. The acceptor substrates used were pNp-α-Gal, oNp-β-Gal, Bz-α-GlcNAc, Bz-β-GlcNAc, Bz-α-GalNAc, pNp-β-GalNAc, pNp-α-Glc, pNp-β-Glc, pNp-β-GlcA, pNp-α-Fuc, pNp-α-Xyl, pNp-β-Xyl, pNp-α-Man, lactoside-Bz, Lac-ceramide, Gal-ceramide, paragloboside, globoside, Gal-β1-4 GalNAc-α-pNp, Gal-β1-3 GlcNAc-β-pNp, GlcNAc-[…] GlcNAc β-Bz, pNp-core1 (Gal-β1-3 GalNAc-α-pNp), pNp-core2 (Gal-β1-3 (GlcNAc-β1-6) GalNAc-α-pNp), pNp-core3 (GlcNAc-β1-3 GalNAc-α-pNp) and pNp-core6 (GlcNAc-β1-6 GalNAc-α-pNp). “Lac” represents a D-lactose residue.
Each reaction solution (final concentrations in parentheses) was prepared by adding each substrate (50 nmol), HEPES buffer (pH 7.4, 14 mM), Triton CF-54 (trade name) (0.3%), UDP-GalNAc (2 mM), MnCl2 (10 mM), UDP-[^3H]GlcNAc and 5 μl G34 enzyme solution, followed by dilution with H2O to a total volume of […].
(§1) The above reaction mixtures were each reacted at 37° C. for 2 hours. After completion of the reaction, 200 μl H2O was added and each mixture was lightly centrifuged to obtain the supernatant. The supernatant was passed through a Sep-Pak plus C18 Cartridge (Waters), which had been washed once with 1 ml methanol and twice with 1 ml H2O and then equilibrated, to allow the substrate and product in the supernatant to adsorb to the cartridge. After washing the cartridge twice with 1 ml H2O, the adsorbed substrate and product were eluted with 1 ml methanol. The eluate was mixed with 5 ml liquid scintillator ACSII (Amersham Biosciences) and measured for the amount of radiation with a scintillation counter (Beckman Coulter).
The results thus measured were compared assuming that the radioactivity obtained using Bz-β-GlcNAc as a substrate was set to 100% (see Table 5).

Assay [2] deals with T2, mouse G34 (Mus musculus, UniProt Q8BG28).
T2 construct: made in house; host or cells: 293T cells transfected with pFLAG-CMV3-mG34A; purified from the supernatant
T2 sequence (Q8BG28 35-504): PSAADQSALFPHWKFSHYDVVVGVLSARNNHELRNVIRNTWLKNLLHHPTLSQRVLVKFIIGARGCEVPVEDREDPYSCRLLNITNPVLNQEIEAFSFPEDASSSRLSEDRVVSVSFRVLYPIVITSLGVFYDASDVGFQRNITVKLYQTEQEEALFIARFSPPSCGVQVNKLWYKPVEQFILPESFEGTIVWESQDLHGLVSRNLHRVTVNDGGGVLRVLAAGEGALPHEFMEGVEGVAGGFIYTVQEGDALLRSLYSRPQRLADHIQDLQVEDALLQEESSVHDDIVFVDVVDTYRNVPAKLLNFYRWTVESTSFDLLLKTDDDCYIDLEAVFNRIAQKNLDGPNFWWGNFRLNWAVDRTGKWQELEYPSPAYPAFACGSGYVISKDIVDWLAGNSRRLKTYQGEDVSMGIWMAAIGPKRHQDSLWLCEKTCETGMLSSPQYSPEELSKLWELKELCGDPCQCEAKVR
Description: Substrate specificity of β1,3-N-acetylgalactosamine transferase activity of mouse G34. The following applies: for % (radioactivity relative to Bz-β-GlcNAc set to 100%): 10 nmol substrate, HEPES pH 7.4, MnCl2 10 mM, 37° C. 16 hours.
Description: The following reaction system was used for examining mouse G34 for its substrate specificity in its β1,3-N-acetylgalactosamine transferase activity. In the reaction solutions shown below, each of the following was used at […] as an “acceptor substrate”: pNp-α-Gal, oNp-β-Gal, Bz-α-GlcNAc, Bz-β-GlcNAc, Bz-α-GalNAc, pNp-β-GalNAc, pNp-α-Glc, pNp-β-Glc, pNp-β-GlcA, pNp-α-Fuc, pNp-α-Xyl, pNp-β-Xyl, pNp-α-Man, lactoside-Bz, Lac-ceramide, Gal-ceramide, Gb3, globoside, Gal-β1-4GalNAc-α-pNp, Galβ1-3GlcNAc-β-Bz, GlcNAc-β1-4-GlcNAc-β-Bz, core1-pNp, core2-pNp, core3-pNp and core6-pNp (all purchased from SIGMA).
Each reaction solution was prepared as follows (final concentrations in parentheses): each substrate (10 nmol), HEPES (N-[2-hydroxyethyl]piperazine-N′-[2-ethanesulfonic acid]) (pH 7.4, 14 mM), MnCl2 (10 mM), Triton CF-54 (trade name) (0.3%), UDP-GalNAc (2 mM) and […] (40 nCi) were mixed and supplemented with 5 μl mouse G34 enzyme solution, followed by dilution with H2O to a total volume of 20 μl.
as §1, with “for 16” for “for 2”
The results thus measured were compared assuming that the radioactivity obtained using Bz-β-GlcNAc as a substrate was set to 100% (Table 11).

Assay [3] has as its target T1, human G34 protein. Briefly: RI assay (divalent ion requirement).
Setting [4] is: concentration 2.5 mM, acceptor Bz-β-GlcNAc, HEPES pH 7.4.
Setting [5] is: concentration 5 mM, acceptor Bz-β-GlcNAc, HEPES pH 7.4.
The mark [6] stands for this setting: concentration 10 mM, acceptor Bz-β-GlcNAc, HEPES pH 7.4.
The mark [7] stands for this setting: concentration 20 mM, acceptor Bz-β-GlcNAc, HEPES pH 7.4.

On to `CC(=O)N[C@H]1[C@@H](Oc2ccc([N+](=O)[O-])cc2)O[C@H](CO[C@@H]2O[C@H](CO)[C@@H](O)[C@H](O)[C@H]2NC(C)=O)[C@H](O)[C@@H]1O` [core6-pNp, GlcNAc-β1-6-GalNAc-α-pNp], for which the “% (radioactivity relative to Bz-β-GlcNAc set to 100%)” value in assay [1] is listed as 19%; in assay [2] it was 18%.

As to `O=[N+]([O-])c1ccc(O[C@@H]2O[C@H](CO)[C@@H](O)[C@H](O)[C@H]2O)cc1` [pNp-β-Glc], the “% (radioactivity relative to Bz-β-GlcNAc set to 100%)” value in assay [2] is 12%.

As to `CC(=O)N[C@H]1[C@H](OC[C@H]2O[C@H](Oc3ccc([N+](=O)[O-])cc3)[C@H](NC(C)=O)[C@@H](O[C@@H]3O[C@H](CO)[C@H](O)[C@H](O)[C@H]3O)[C@H]2O)O[C@H](CO)[C@@H](O)[C@@H]1O` [core2-pNp, Gal-β1-3-(GlcNAc-β1-6)GalNAc-α-pNp], in assay [1], the “increase in radioactivity” value was “largest increase in radioactivity” and the “% (radioactivity relative to Bz-β-GlcNAc set to 100%)” value is given as 185%. Moreover, the “% (radioactivity relative to Bz-β-GlcNAc set to 100%)” value in assay [2] is recorded as 25%.

As for `[Cu+2]` [Cu], in assay [3], the “Mn-induced enhancement of the activity on addition of Cu” value is “completely eliminated”.

Consider `CC(=O)N[C@H]1[C@H](OCc2ccccc2)O[C@H](CO)[C@@H](O)[C@@H]1O` [Bz-β-GlcNAc], for which the “% (radioactivity relative to Bz-β-GlcNAc set to 100%)” value in assay [1] was 100%. In assay [2], the “increase in radioactivity” value is “largest increase in radioactivity” and the “% (radioactivity relative to Bz-β-GlcNAc set to 100%)” value was determined as 100%.

Regarding `[Cl-].[Cl-].[Mg+2]` [Mg, MgCl2], the DPM is reported as 4800.03 DPM in assay [3] (setting [4]); 8692.15 DPM in assay [3] (setting [5]); 8980.56 DPM in assay [3] (setting [6]); 6726.32 DPM in assay [3] (setting [7]); 5592.88 DPM in assay [3] (concentration 40 mM, acceptor Bz-β-GlcNAc, HEPES pH 7.4).

With `[Cl-].[Cl-].[Co+2]` [Co, CoCl2], the DPM in assay [3] (concentration 2.5 mM) is recorded as 10979.99 DPM; in assay [3] (concentration 5 mM), 9503.91 DPM; in assay [3] (concentration 10 mM), 10979.99 DPM; in assay [3] (concentration 20 mM), 8070.47 DPM; in assay [3] (concentration 40 mM) it was 7854.92 DPM.

In assay [3] (pH 7.4), `O=C(O)CN(CCN(CC(=O)O)CC(=O)O)CC(=O)O` [EDTA] had a DPM of 149.32 DPM.

As to `CC(=O)N[C@H]1[C@H](OCc2ccccc2)O[C@H](CO)[C@@H](O[C@@H]2O[C@H](CO)[C@@H](O)[C@H](O)[C@H]2NC(C)=O)[C@@H]1O` [GlcNAcβ1-4GlcNAc-β-Bz], the “% (radioactivity relative to Bz-β-GlcNAc set to 100%)” value in assay [1] came to 29%; in assay [2], 10%.

As for `CC(=O)NC1C(OC2C(O)C(CO)OC(Oc3ccc([N+](=O)[O-])cc3)C2NC(C)=O)OC(CO)C(O)C1O` (stereo not drawn) [core3-pNp, GlcNAc-β1-3-GalNAc-α-pNp], the “% (radioactivity relative to Bz-β-GlcNAc set to 100%)” value is recorded as 8% in assay [1] and 14% in assay [2].

Turning to `[Cl][Mn][Cl]` [Mn, MnCl2], the DPM is on record as 7260.09 DPM in assay [3] (setting [4]), 8270.23 DPM in assay [3] (setting [5]), 7748.77 DPM in assay [3] (setting [6]) and 7515.86 DPM in assay [3] (setting [7]).
